What was measured:
[1] = target: T1, Plasma Kallikrein (Homo sapiens, UniProt P03952); assay: Related protease inhibition: Plasma Kallikrein (fluorogenic substrate at Km); type: biochemical; details: class symbols per Table 18, read-out: IC50 (human PKal)
T1 construct: FXIIa converts plasma prekallikrein (PK) to plasma kallikrein (PKa)
Experimental: In vitro inhibition of related proteases was determined using an IC50 assay based on standard literature methods (see e.g. Shori et al., Biochem. Pharmacol., 1992, 43, 1209; Bouckaert et al., European Journal of Medicinal Chemistry 110 (2016) 181). Human serine protease enzyme Plasma Kallikrein, KLK1, FXa, Plasmin, Thrombin and Trypsin were assayed for enzymatic activity using an appropriate fluorogenic substrate at Km concentration, FXIa at fixed substrate concentration of 100 μM and various concentrations of the test compound. Protease activity was measured by monitoring the accumulation of liberated fluorescence from the substrate over 5 min at 25° C. The linear rate of fluorescence increase per minute was expressed as percentage (%) activity. IC50 values were calculated as the concentration of inhibitor giving 50% inhibition of the uninhibited enzyme activity (100%).

[2] = target: T2, Human Factor XIIa (Homo sapiens, UniProt P00748); assay: Determination of FXIIa inhibition (fluorogenic substrate H-DPro-Phe-Arg-AFC, IC50 assay); type: biochemical; details: substrate at Km concentration, 25° C.; category scale; read-out: Human FXII IC50 (nm)
T2 construct: Proteolytic cleavage of FXII to heavy and light chains of FXIIa dramatically increases catalytic activity; purchased Enzyme Research Laboratories
T2 sequence (P00748 373-615 limits assumed): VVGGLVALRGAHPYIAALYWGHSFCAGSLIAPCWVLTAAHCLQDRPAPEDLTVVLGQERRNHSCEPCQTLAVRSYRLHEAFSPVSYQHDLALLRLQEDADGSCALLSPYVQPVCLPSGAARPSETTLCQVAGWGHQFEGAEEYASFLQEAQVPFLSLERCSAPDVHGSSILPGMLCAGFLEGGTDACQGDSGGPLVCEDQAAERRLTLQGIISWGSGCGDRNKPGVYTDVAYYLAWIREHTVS
T2 sequence (P00748 20-372 partner limits assumed): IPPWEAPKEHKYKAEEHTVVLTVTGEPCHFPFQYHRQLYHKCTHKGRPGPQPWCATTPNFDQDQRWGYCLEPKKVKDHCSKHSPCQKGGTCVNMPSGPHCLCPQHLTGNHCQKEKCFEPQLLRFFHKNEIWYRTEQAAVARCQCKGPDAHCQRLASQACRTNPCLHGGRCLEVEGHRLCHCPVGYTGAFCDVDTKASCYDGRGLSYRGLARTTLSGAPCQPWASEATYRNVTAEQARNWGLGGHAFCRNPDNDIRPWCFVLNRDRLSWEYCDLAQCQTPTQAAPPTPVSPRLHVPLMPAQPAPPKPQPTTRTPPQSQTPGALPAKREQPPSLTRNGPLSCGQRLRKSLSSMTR
Summary of the method: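 At substrate Km and 25° C., the rate of AFC release from H-DPro-Phe-Arg-AFC by human Factor XIIa was followed for 5 min across compound concentrations. Inhibition was derived as percent of uninhibited rate, giving IC50.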

T1 sequence (P03952 391-638 limits assumed): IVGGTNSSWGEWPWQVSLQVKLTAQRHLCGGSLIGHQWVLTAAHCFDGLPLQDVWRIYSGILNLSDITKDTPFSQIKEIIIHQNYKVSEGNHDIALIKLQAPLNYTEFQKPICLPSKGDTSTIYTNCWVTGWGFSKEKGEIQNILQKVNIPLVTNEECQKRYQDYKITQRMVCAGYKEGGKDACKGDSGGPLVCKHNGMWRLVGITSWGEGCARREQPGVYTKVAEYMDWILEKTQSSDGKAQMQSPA
T1 sequence (P03952 20-390 partner limits assumed): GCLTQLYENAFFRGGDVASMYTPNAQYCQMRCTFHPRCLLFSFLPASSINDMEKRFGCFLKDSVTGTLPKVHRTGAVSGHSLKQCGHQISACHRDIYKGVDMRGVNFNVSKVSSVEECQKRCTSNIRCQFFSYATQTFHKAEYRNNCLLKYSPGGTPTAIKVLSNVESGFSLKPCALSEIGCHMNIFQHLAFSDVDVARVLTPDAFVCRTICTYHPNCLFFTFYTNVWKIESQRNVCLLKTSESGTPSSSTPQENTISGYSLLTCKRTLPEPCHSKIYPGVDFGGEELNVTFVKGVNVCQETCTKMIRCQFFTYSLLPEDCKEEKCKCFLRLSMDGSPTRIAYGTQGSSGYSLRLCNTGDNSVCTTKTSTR

SMILES	IC50 [1] [µM]	IC50 [2] [µM]
CC(C)N1C[C@@H]2C[C@H]1CN2CC12CC(CNc3cccc4c(N)nccc34)(C1)C2 [Example 1005.1, N5-((3-(((1S,4S)-5-Isopropyl-2,5-diazabicyclo[2.2.1]heptan-2-yl)methyl)bicyclo[1.1.1]pentan-1-yl)methyl)isoquinoline-1,5-diamine]	> 40	0.3 to 1
Nc1nccc2c(OCC34CC(C(=O)N5CCn6ccnc6C5)(C3)C4)cccc12 [Example 1015, [3-[(1-aminoisoquinolin-5-yl)oxymethyl]-1-bicyclo[1.1.1]pentanyl]-(6,8-dihydro-5H-imidazo [1,2-a]pyrazin-7-yl)methanone]	> 40	10 to 40
Nc1nccc2c(NCC34CC(COc5ccc6c(c5)NC(=O)C6)(C3)C4)cccc12 [Example 1113, 6-((3-(((1-aminoisoquinolin-5-yl)amino)methyl)bicyclo[1.1.1]pentan-1-yl)methoxy)indolin-2-one]	> 40	1 to 3
Nc1nccc2c(NCC34CC(Cn5ccn6ccc(=O)cc56)(C3)C4)cccc12 [Example 1127, 1-((3-(((1-aminoisoquinolin-5-yl)amino)methyl)bicyclo[1.1.1]pentan-1-yl)methyl)imidazo[1,2-a]pyridin-7(1H)-one]	> 40	3 to 10
Clc1cc2c(NCC34CC(COC5CCn6ccnc6C5)(C3)C4)ccnc2[nH]1 (centres unmarked) [Example 1130, 2-Chloro-N-[[3-(5,6,7,8-tetrahydroimidazo[1,2-a]pyridin-7-yloxymethyl)-1-bicyclo[1.1.1]pentanyl]methyl]-1H-pyrrolo[2,3-b]pyridin-4-amine]	> 40	0.3 to 1
Nc1nccc2c(NCC34COC(COc5ccn6c(C(F)(F)F)nnc6c5)(C3)C4)cccc12 [Example 2206, N5-((1-(((3-(trifluoromethyl)-[1,2,4]triazolo[4,3-a]pyridin-7-yl)oxy)methyl)-2-oxabicyclo[2.1.1]hexan-4-yl)methyl)isoquinoline-1,5-diamine]	> 40	1 to 3
Nc1nccc2c(NCC34COC(COc5ccn6ncnc6c5)(C3)C4)cccc12 [Example 2207, N5-((1-(([1,2,4]triazolo[1,5-a]pyridin-7-yloxy)methyl)-2-oxabicyclo[2.1.1]hexan-4-yl)methyl)isoquinoline-1,5-diamine]	> 40	1 to 3
N#Cc1cnc(OCC23CC(CNc4cccc5c(N)nccc45)(CO2)C3)nc1 [Example 2208, 2-((4-(((1-aminoisoquinolin-5-yl)amino)methyl)-2-oxabicyclo[2.1.1]hexan-1-yl)methoxy)pyrimidine-5-carbonitrile]	> 40	3 to 10

Now from value to compound:

IC50 [1] [µM]	IC50 [2] [µM]	SMILES
> 40	0.3 to 1	Nc1nccc2c(OCC34CC(COc5ccn6ccnc6c5)(C3)C4)cccc12 [Example 1013, 5-[[3-(Imidazo[1,2-a]pyridin-7-yloxymethyl)-1-bicyclo[1.1.1]pentanyl]methoxy]isoquinolin-1-amine]
> 40	1 to 3	Nc1nccc2c(CCC34CC(COc5ccn6ccnc6c5)(C3)C4)cccc12 [Example 1014, 5-[2-[3-(Imidazo[1,2-a]pyridin-7-yloxymethyl)-1-bicyclo[1.1.1]pentanyl]ethyl]isoquinolin-1-amine]
> 40	0.3 to 1	Nc1nccc2c(NCC34CC(COc5cccn6ccnc56)(C3)C4)cccc12 [Example 1018, 5-N-[[3-(Imidazo[1,2-a]pyridin-8-yloxymethyl)-1-bicyclo[1.1.1]pentanyl]methyl]isoquinoline-1,5-diamine]
> 40	10 to 40	Nc1nccc2c(NCC34CC(COc5ccc6cn[nH]c6c5)(C3)C4)cccc12 [Example 1125, N5-((3-(((1H-indazol-6-yl)oxy)methyl)bicyclo[1.1.1]pentan-1-yl)methyl)isoquinoline-1,5-diamine]
> 40	10 to 40	Nc1nccc2c(NC34CC(COc5ccc6nccn6c5)(C3)C4)cccc12 [Example 1131, N5-(3-((imidazo[1,2-a]pyridin-6-yloxy)methyl)bicyclo[1.1.1]pentan-1-yl)isoquinoline-1,5-diamine]
